The source of these data is ChEMBL document CHEMBL5620346, “Current scenario of pyrazole hybrids with in vivo therapeutic potential against cancers” (Eur J Med Chem, 2023).

In data set [1] the test system is HepG2. Description: Cytotoxicity against human HepG2 cells assessed as reduction in cell viability incubated for 72 hrs by MTT assay. It counts as functional, cell-based. The settings on record: HepG2, 72 h. In general terms: Tetrazolium assays rely on reduction of a dye to a coloured formazan, in cell work by metabolically active cells.
Data set [2] concerns MCF7. Description: Cytotoxicity against human MCF7 cells assessed as reduction in cell viability incubated for 72 hrs by MTT assay. It counts as functional, cell-based. Conditions: MCF7, 72 h.
For the next data set, the system named is HeLa. Description: Cytotoxicity against human HeLa cells assessed as reduction in cell viability incubated for 72 hrs by MTT assay. Type of data set: functional, cell-based.
Data set [3] concerns T47D. Description: Antitumor activity against human T47D cells xenografted in nude BALB/c mouse assessed as tumor growth inhibition at 20 mg/kg administered via oral gavage for 20 days relative to control. Type of data set: functional. Conditions: 480 h, time 20 day, read-out: TGI. In general terms: A xenograft is tissue or cells of one species grown in another, often human tumour cells in immunodeficient mice.

Data set [4] relates to T47D. Description: Antitumor activity against human T47D cells xenografted in nude BALB/c mouse assessed as tumor growth inhibition at 40 mg/kg administered via oral gavage for 20 days relative to control. Type of data set: functional. Conditions: 480 h, time 20 day, read-out: TGI.
Data set [5] can be described thus: […] in mouse xenografted with human NCI-H526 cells assessed as reduction in tumor growth at 3 mg/kg, po relative to control. Conditions: in vivo. Type of data set: organism-based.
For data set [6], the target named is Receptor-type tyrosine-protein kinase FLT3 (Homo sapiens, UniProt P36888, D835H). Description: Inhibition of FLT3 D835H mutant (unknown origin).
Data set [7] addresses Cyclin-dependent kinase 4 (Homo sapiens, UniProt P11802). In words: Inhibition of CDK4 (unknown origin).
Another data set relates to MV4-11. Description: Antitumor activity against human MV4-11 cells xenografted in mouse assessed as tumor growth inhibition at 200 mg/kg, po relative to control. Type of data set: functional. The settings on record: read-out: TGI.
For data set [8], the system named is MCF7. In words: Cytotoxicity against human MCF7 cells assessed as reduction in cell viability measured after 72 hrs by SRB assay. Type of data set: functional, cell-based. Conditions: MCF7, 72 h. Background: In SRB staining, fixed cells bind dye roughly in proportion to their protein.
The next data set concerns MCF-10A. In words: Cytotoxicity against human MCF-10A cells assessed as reduction in cell viability measured after 72 hrs by SRB assay. It counts as functional, cell-based.
Data set [9] has as its system HCT-116. In words: Antiproliferative activity against human HCT-116 cells assessed as reduction in cell growth incubated for 72 hrs by SRB assay. It counts as functional, cell-based. Conditions: HCT-116, 72 h.
For data set [10], the system named is HepG2. Description: Antiproliferative activity against human HepG2 cells assessed as reduction in cell growth incubated for 72 hrs by SRB assay. Conditions: HepG2, 72 h. It counts as functional, cell-based.
The subject of another data set is NCI-H1975. In words: Antiproliferative activity against human NCI-H1975 cells assessed as reduction in cell growth incubated for 72 hrs by SRB assay. Type of data set: functional, cell-based. The settings on record: NCI-H1975, 72 h.
Data set [11] in a line: Antiproliferative activity against human 95-D cells assessed as reduction in cell growth incubated for 72 hrs by SRB assay. It counts as functional, cell-based.
A further data set concerns PANC-1. In words: Antiproliferative activity against human PANC-1 cells assessed as reduction in cell growth incubated for 72 hrs by SRB assay. Type of data set: functional, cell-based. Conditions: PANC-1, 72 h.
In the next data set the test system is MDA-MB-231. Description: Antiproliferative activity against human MDA-MB-231 cells assessed as reduction in cell growth incubated for 72 hrs by SRB assay. It counts as functional, cell-based. Conditions: MDA-MB-231, 72 h.
Another data set deals with Bel-7402. In words: Antiproliferative activity against human Bel-7402 cells assessed as reduction in cell growth incubated for 72 hrs by SRB assay. Type of data set: functional, cell-based. Conditions: Bel-7402, 72 h.
Another data set has as its system NCI-H1299. In words: Antiproliferative activity against human NCI-H1299 cells assessed as reduction in cell growth incubated for 72 hrs by SRB assay. It counts as functional, cell-based. Conditions: NCI-H1299, 72 h.
In a further data set the test system is SK-OV-3. In words: Antiproliferative activity against human SK-OV-3 cells assessed as reduction in cell growth incubated for 72 hrs by SRB assay. Type of data set: functional, cell-based. The settings on record: SK-OV-3, 72 h.
The test system of data set [12] is K562. Description: Antiproliferative activity against human K562 cells assessed as reduction in cell growth incubated for 72 hrs by SRB assay. Type of data set: functional, cell-based. Conditions: K562, 72 h.
The next data set relates to U-87 MG. In words: Antiproliferative activity against human U87 cells assessed as reduction in cell growth incubated for 72 hrs by SRB assay. Type of data set: functional, cell-based, U-87MG ATCC.
The nature of data set [13]: Cytotoxicity against human NCM460 cells assessed as reduction in cell viability incubated for 48 hrs by MTT assay. Type of data set: toxicity, cell-based.
Data set [14] is described as follows: Antiproliferative activity against HUVEC cells assessed as cell growth inhibition measured after 72 hrs by crystal violet staining based analysis. It counts as toxicity. Conditions: human.
Data set [15] has as its system HCT-116. In words: Antitumor activity against human HCT-116 cells xenografted in BALB/c nude mouse assessed as tumor growth inhibition at 25 mg/kg, po administered once a daily for 13 consecutive days relative to control. It counts as functional. Conditions: read-out: TGI.
In data set [16] the test system is HCT-116. Description: Antitumor activity against human HCT-116 cells xenografted in BALB/c nude mouse assessed as tumor growth inhibition at 50 mg/kg, po administered once a daily for 13 consecutive days relative to control. Type of data set: functional. Conditions: read-out: TGI.
The test system of data set [17] is MCF7. In words: Cytotoxicity against human MCF7 cells assessed as reduction in cell viability incubated for 48 hrs by MTT assay. Type of data set: functional, cell-based. Conditions: MCF7, 48 h.
In data set [18] the test system is K562. Description: Cytotoxicity against human K562 cells assessed as reduction in cell viability incubated for 48 hrs by MTT assay. Type of data set: functional, cell-based. The settings on record: K562, 48 h.
Data set [19] concerns HT-29. Description: Cytotoxicity against human HT-29 cells assessed as reduction in cell viability incubated for 48 hrs by MTT assay. Conditions: HT-29, 48 h. It counts as functional, cell-based.
Data set [20] deals with HT-29. In words: Antitumor activity against human HT-29 cells xenografted in BALB/c mouse assessed as reduction in tumor growth at 25 mg/kg, ip relative to control. Type of data set: functional. Also noted: scale not given: the % may be the effect or the level left.

Each structure is given as a SMILES string.

Cyclin-dependent kinase 4, sequence (P11802 whole entry): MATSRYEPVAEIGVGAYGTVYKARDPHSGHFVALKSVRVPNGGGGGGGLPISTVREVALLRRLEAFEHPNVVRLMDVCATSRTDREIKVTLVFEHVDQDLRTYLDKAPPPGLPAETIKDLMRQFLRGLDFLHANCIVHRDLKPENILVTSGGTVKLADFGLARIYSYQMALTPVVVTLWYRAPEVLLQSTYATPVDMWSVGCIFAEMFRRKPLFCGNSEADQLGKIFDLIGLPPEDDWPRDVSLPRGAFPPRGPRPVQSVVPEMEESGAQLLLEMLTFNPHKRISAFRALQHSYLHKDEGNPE

For orientation: IC50 means the concentration that gives 50% inhibition. Consider `CCOC(=O)C1=C(N/C=N/c2cccnc2Cl)Nc2[nH]nc(C)c2C1c1ccc(N(C)C)cc1` (stereo unspecified), for which the half-maximal inhibitory concentration (IC50) with HepG2 [1] came out at 4.55 µM; in the data set with MCF7 [2], 4.24 µM; in the data set with HeLa, 4.18 µM.

`CCOC(=O)C1=C(N)Nc2[nH]nc(C)c2C1c1ccc(N(C)C)cc1` (stereo unspecified): the IC50 was determined as 4.55 µM in the data set on HepG2 [1], 4.24 µM in the data set on MCF7 [2] and 4.18 µM in the data set with HeLa.

For the compound `Cc1n[nH]c2c1C(c1ccc(N(C)C)cc1)C(C(N)=O)=C(N)N2` (stereo unspecified), the results for the half-inhibitory concentration (IC50) with HepG2 [1], with MCF7 [2] and in the data set on HeLa were 4.55 µM, 4.24 µM and 4.18 µM, respectively.

In the case of `COc1ncc(-c2ccc3ncnc(Nc4cnn(CCO)c4)c3c2)cc1NS(=O)(=O)c1ccc(F)cc1F`, the inhibition in vivo at 20 mg/kg in the data set on T47D [3] worked out at 54.1%. Further, the inhibition in vivo at 40 mg/kg in the data set on T47D [4] came out at 84.1%.

A word on the TGI: it is how far tumour growth fell short of that in controls. `Cc1nnn(C)c1-c1cnc2c3cc4cnn(C)c4cc3n([C@H](c3ccccc3)C3CCOCC3)c2c1`: the inhibition of tumour growth (TGI) in data set [5] stood at 100%.

Turning to `CCN1CCN(c2ccc(Nc3ncc(F)c(-c4cnc5cnn(C(C)C)c5c4)n3)cc2OC)CC1`, the IC50 in [6] amounted to 0.011 µM; in data set [7] it was 0.007 µM. In addition, the inhibition in vivo at 200 mg/kg with MV4-11 came to 67%.

As for `COc1ccc(C2CC(c3ccc(OC)c(OC)c3)=NN2c2nc(-c3ccccc3)cs2)cc1` (stereo unspecified), the half-maximal inhibitory concentration (IC50) in the data set on MCF7 [8] was 7.21 µM; in the data set on MCF-10A, greater than 50 µM.

For the compound `CCOc1ccc(Oc2ccc(C3=NN(C4=NC(=O)CS4)C(c4cc(O)c(O)c(Br)c4Br)C3)cc2)cc1` (stereo unspecified), the IC50 (with HCT-116 [9]; in the data set with HepG2 [10]; in the data set with NCI-H1975; in data set [11]; in the data set on PANC-1; with MDA-MB-231) was 2.64 µM in each case. Further, the IC50 in the data set on Bel-7402, in the data set on NCI-H1299, in the data set with SK-OV-3, in the data set with K562 [12] and in the data set with U-87 MG was 2.64 µM each time. Also, the IC50 at 48 h in data set [13] was 27.1 µM. Moreover, the concentration for half-maximal inhibition (IC50) at 72 h in [14] was determined as 28.3 µM. Further, the inhibition in vivo at 25 mg/kg in the data set with HCT-116 [15] was 58.8%. In the data set on HCT-116 [16], the inhibition in vivo at 50 mg/kg was found to be 67.2%.

As for `O=C1NC(=O)/C(=C/c2ccc3cc(OCC(=O)N4N=C(c5ccc(F)cc5)CC4c4ccccc4Cl)ccc3c2)S1` (stereo unspecified), the IC50 with MCF7 [17], in the data set with K562 [18] and with HT-29 [19] was 8.2 µM each time. For the same compound, the Activity in the data set with HT-29 [20] is reported as 30%.
